Test results from patent US12624044B2, “SMARCA degraders and uses thereof” (Kymera Therapeutics, Inc., priority 2019, dated 2026).

Molecular target: SMARCA2 (Homo sapiens, UniProt P51531)
Test: MSD SMARCA2 degradation in NCI-H1299 cell line (24 h)
Assay type: cell-based
Design: HC: NCI-H1299 cells treated with DMSO; host or cells: NCI-H1299
Conditions: for Dmax: NCI-H1299, NCI-H1299 cells; for DC50: NCI-H1299 cells, read-out: SMARCA2 MSD H1299 degradation 24 h: External Abs-DC50
Method: Example 32. MSD SMARCA2 Degradation in […] Cell Line
Cell Culture: Cells were cultured in exponential growth phase.
Compound Preparation and Treatment: NCI-H1299 cells were seeded into the 96-well plate at 4.0*10^4 cells per 100 ul per well. Incubate the plate in the incubator overnight. The next day, compounds were diluted to designed stock concentration by TECAN, then perform a 3 fold, 9-point dilution via transferring 15 uL compound into 30 μL DMSO using Apricot. 200 nL diluted compound from compound source plate were transferred into the 96-intermediate plate as designated by using Echo550, followed with 100 ul culture medium to make the 2× compound solution. Cell plate were changed with 80 ul of fresh culture medium and 80 ul of 2× compound solution was added into the well to achieve the final designed concentration. Cell plate was then shaken at 720 rpm for 5 min and incubated for 24 hours in the incubator.
Sample Preparation: Media was aspirated from the cultures and the plate was washed with PBS twice. 60 ul of pre-chilled PIPA lysis buffer (Boston BioProducts BP-115D) with protease inhibitor were directly added into the well to lyze the cells for 20 minutes at 4° C. Cell lysates were collected.
MSD Procedure: The MSD plate was coated with 40 ul cell lysate and incubated at 4° C. overnight. The next day, the MSD coated bare plate was washed 3 times with 150 ul 1×TBST per well, blocked with 150 ul of blocking buffer per well, and shaken for 1 hour at RT, 600 rpm. Blocking buffer was 3% Blocker A in TBST. MSD plate was then washed 3 times with 150 ul 1×TBST per well and Primary Detection antibody (Rabbit anti-SMARCA2/BRM antibody, 100 μg/ml, ab223735) was added to a final [conc.]: 0.3 ug/ml, 25 ul/well and shaken for 1 hour at RT, 600 rpm. Antibody was prepared in Antibody Detection buffer (1% Blocker A in 1×TBST). The MSD plate was then washed 3 times with 150 ul 1×TBST per well. Secondary Detection antibody (SULFO-TAG anti-species antibody) was then added to a final [conc.]: 1 ug/ml, 25 ul/well, and shaken for 1 hour at RT, 600 rpm. Antibodies were prepared in Antibody Detection buffer (1% Blocker A in 1×TBST). MSD plate was washed 3 times with 150 ul 1×TBST per well and 2×MSD reading buffer was added, 150 ul per well, and diluted from 4× with water. MSD instrument was then read.
Data Analysis: The percentage of relative level of SMARCA2 level was calculated following equation below.
LC: A2780, SMARCA2 negative cells. HC: NCI-H1299 cells treated with DMSO.
The letter codes for the percentage of SMARCA2 degradation after 24 hours (Dmax %) include: A (>90% degradation), B (>70-90 degradation), C (50-70 degradation), and D (<50% degradation).

SMARCA2, sequence (P51531 whole entry): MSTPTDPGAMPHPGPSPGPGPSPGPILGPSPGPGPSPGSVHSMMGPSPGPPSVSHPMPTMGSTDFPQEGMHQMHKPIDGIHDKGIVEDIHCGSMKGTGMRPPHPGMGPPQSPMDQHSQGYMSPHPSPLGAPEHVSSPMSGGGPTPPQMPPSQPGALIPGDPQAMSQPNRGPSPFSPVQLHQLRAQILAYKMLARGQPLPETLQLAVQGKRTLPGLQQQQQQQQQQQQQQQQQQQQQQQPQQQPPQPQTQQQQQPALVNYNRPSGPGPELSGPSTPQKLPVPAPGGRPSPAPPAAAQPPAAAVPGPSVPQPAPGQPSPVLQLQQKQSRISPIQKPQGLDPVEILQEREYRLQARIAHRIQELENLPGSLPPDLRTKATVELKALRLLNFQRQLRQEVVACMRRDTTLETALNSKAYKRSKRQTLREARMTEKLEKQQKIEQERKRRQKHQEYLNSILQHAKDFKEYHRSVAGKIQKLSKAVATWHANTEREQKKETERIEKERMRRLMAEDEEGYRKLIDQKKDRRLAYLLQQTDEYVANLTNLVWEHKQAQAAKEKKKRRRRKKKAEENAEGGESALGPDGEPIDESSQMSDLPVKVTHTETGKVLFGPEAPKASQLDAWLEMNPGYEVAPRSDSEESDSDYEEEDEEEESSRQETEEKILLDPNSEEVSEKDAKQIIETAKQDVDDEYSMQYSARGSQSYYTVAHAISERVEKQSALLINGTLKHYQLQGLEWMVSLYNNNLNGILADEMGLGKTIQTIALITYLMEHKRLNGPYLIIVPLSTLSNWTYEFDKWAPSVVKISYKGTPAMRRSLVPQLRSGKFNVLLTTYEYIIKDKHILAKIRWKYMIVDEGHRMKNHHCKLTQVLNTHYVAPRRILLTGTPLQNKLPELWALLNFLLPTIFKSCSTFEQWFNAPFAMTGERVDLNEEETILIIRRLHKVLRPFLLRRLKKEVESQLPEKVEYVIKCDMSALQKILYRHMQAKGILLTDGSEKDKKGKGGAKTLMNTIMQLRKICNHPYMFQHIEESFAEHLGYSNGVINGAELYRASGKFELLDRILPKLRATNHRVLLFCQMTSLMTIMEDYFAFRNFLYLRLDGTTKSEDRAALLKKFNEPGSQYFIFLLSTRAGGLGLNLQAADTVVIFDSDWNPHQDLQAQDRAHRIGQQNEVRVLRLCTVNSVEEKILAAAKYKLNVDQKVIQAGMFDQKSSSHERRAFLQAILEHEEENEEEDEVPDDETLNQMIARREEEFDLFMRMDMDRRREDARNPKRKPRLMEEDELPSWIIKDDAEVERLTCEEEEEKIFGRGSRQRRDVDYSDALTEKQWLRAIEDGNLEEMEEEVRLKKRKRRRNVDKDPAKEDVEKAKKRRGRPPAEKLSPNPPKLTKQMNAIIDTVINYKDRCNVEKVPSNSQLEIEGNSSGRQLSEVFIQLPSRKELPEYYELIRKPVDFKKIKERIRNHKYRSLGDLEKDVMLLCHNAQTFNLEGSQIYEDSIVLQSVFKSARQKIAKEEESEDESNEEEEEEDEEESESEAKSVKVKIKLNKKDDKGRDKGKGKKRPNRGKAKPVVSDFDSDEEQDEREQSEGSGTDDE

| Compound | Dmax [%] | DC50 [µM] |
| --- | --- | --- |
| Cn1c(=O)n(C2CCC(=O)NC2=O)c2cccc(CNCCCCCc3cn(Cc4cccc(N5C[C@H]6C[C@@H]5CN6/C=C/C(=O)c5ccccc5O)n4)nn3)c21 (some centres unmarked) [I-81] | < 50 | > 1 |
| Cn1c(=O)n(C2CCC(=O)NC2=O)c2cccc(CNCCCCCCc3cn(Cc4cccc(N5C[C@H]6C[C@@H]5CN6/C=C/C(=O)c5ccccc5O)n4)nn3)c21 (some centres unmarked) [I-82] | < 50 | > 1 |
| Cn1c(=O)n(C2CCC(=O)NC2=O)c2ccc(CCCOc3ccc(CN4CCN(c5cc(-c6ccccc6O)nnc5N)CC4)cc3)cc21 (centres unmarked) [I-83, 3-(5-(3-(4-((4-(3-amino-6-(2-hydroxyphenyl)pyridazin-4-yl)piperazin-1-yl)methyl)phenoxy)propyl)-3-methyl-2-oxo-2,3-dihydro-1H-benzo[d]imidazol-1-yl)piperidine-2,6-dione] | < 50 | > 1 |
| Cn1c(=O)n(C2CCC(=O)NC2=O)c2ccc(CCCCOc3ccc(CN4CCN(c5cc(-c6ccccc6O)nnc5N)CC4)cc3)cc21 (centres unmarked) [I-84] | < 50 | > 1 |
| Cn1c(=O)n(C2CCC(=O)NC2=O)c2ccc(CCCCCOc3ccc(CN4CCN(c5cc(-c6ccccc6O)nnc5N)CC4)cc3)cc21 (centres unmarked) [I-85] | < 50 | > 1 |
| Cn1c(=O)n(C2CCC(=O)NC2=O)c2ccc(CCCCCCOc3ccc(CN4CCN(c5cc(-c6ccccc6O)nnc5N)CC4)cc3)cc21 (centres unmarked) [I-86] | < 50 | > 1 |
| Cn1c(=O)n(C2CCC(=O)NC2=O)c2ccc(CCCCCCCOc3ccc(CN4CCN(c5cc(-c6ccccc6O)nnc5N)CC4)cc3)cc21 (centres unmarked) [I-87] | < 50 | > 1 |
| Cn1c(=O)n(C2CCC(=O)NC2=O)c2ccc(CCCCCCCc3cnc(N4C5CCC4CN(c4cc(-c6ccccc6O)nnc4N)C5)nc3)cc21 (centres unmarked) [I-88] | > 90 | < 0.1 |
| Cn1c(=O)n(C2CCC(=O)NC2=O)c2ccc(CCCCCCCCc3cnc(N4C5CCC4CN(c4cc(-c6ccccc6O)nnc4N)C5)nc3)cc21 (centres unmarked) [I-89, 3-[5-[8-[2-[3-[3-amino-6-(2-hydroxyphenyl)pyridazin-4-yl]-3,8-diazabicyclo [3.2.1]octan-8-yl]pyrimidin-5-yl]octyl]-3-methyl-2-oxo-benzimidazol-1-yl]piperidine-2,6-dione] | > 90 | < 0.1 |

Results, then the compound that gave them:

| Dmax [%] | DC50 [µM] | Compound |
| --- | --- | --- |
| < 50 | > 1 | Cn1c(=O)n(C2CCC(=O)NC2=O)c2ccc(CNCCCc3cn(Cc4cccc(N5C[C@H]6C[C@@H]5CN6/C=C/C(=O)c5ccccc5O)n4)nn3)cc21 (some centres unmarked) [I-74] |
| < 50 | > 1 | Cn1c(=O)n(C2CCC(=O)NC2=O)c2ccc(CNCCCCc3cn(Cc4cccc(N5C[C@H]6C[C@@H]5CN6/C=C/C(=O)c5ccccc5O)n4)nn3)cc21 (some centres unmarked) [I-75] |
| < 50 | > 1 | Cn1c(=O)n(C2CCC(=O)NC2=O)c2ccc(CNCCCCCc3cn(Cc4cccc(N5C[C@H]6C[C@@H]5CN6/C=C/C(=O)c5ccccc5O)n4)nn3)cc21 (some centres unmarked) [I-76] |
| < 50 | > 1 | Cn1c(=O)n(C2CCC(=O)NC2=O)c2ccc(CNCCCCCCc3cn(Cc4cccc(N5C[C@H]6C[C@@H]5CN6/C=C/C(=O)c5ccccc5O)n4)nn3)cc21 (some centres unmarked) [I-77] |
| < 50 | > 1 | Cn1c(=O)n(C2CCC(=O)NC2=O)c2cccc(CNCCc3cn(Cc4cccc(N5C[C@H]6C[C@@H]5CN6/C=C/C(=O)c5ccccc5O)n4)nn3)c21 (stereo partly drawn) [I-78, 3-[4-[[2-[1-[[6-[(1R,4R)-5-[(E)-3-(2-hydroxyphenyl)-3-oxo-prop-1-enyl]-2,5-diazabicyclo[2.2.1]heptan-2-yl]-2-pyridyl]methyl]triazol-4-yl]ethylamino]methyl]-3-methyl-2-oxo-benzimidazol-1-yl]piperidine-2,6-dione] |
| < 50 | > 1 | Cn1c(=O)n(C2CCC(=O)NC2=O)c2cccc(CNCCCc3cn(Cc4cccc(N5C[C@H]6C[C@@H]5CN6/C=C/C(=O)c5ccccc5O)n4)nn3)c21 (some centres unmarked) [I-79] |
| < 50 | > 1 | Cn1c(=O)n(C2CCC(=O)NC2=O)c2cccc(CNCCCCc3cn(Cc4cccc(N5C[C@H]6C[C@@H]5CN6/C=C/C(=O)c5ccccc5O)n4)nn3)c21 (some centres unmarked) [I-80] |
